Laboratory results from publication PMC9266530 (International Journal of Molecular Sciences, 2022).
Values joined by “and” are separate entries in the source; they are usually repeats but may differ in a detail not shown here. Equal values may be shown once. Read-outs that look alike come from different tables or passages of the source.

Legend:
[1] = target: T1, CYP3A4 (Homo sapiens, UniProt P08684); experiment: Stopped-flow kinetics of ligand binding; conditions: for Percentage of the absorbance change taking place during the fast kinetic phase: ligand-binding reaction; for kfast: rate constant for the fast kinetic phase of the ligand-binding reaction
T1 construct: The full-length protein was used for assays and the truncated form was used for crystallization; made in house
Procedure: Kinetics of Ligand Binding—The kinetics of ligand binding to CYP3A4 were measured at 427 nm in an SX.18MV stopped-flow apparatus (Applied Photophysics, UK), as previously described.
Target sequence in this assay (P08684 whole entry, the tested form may be a part): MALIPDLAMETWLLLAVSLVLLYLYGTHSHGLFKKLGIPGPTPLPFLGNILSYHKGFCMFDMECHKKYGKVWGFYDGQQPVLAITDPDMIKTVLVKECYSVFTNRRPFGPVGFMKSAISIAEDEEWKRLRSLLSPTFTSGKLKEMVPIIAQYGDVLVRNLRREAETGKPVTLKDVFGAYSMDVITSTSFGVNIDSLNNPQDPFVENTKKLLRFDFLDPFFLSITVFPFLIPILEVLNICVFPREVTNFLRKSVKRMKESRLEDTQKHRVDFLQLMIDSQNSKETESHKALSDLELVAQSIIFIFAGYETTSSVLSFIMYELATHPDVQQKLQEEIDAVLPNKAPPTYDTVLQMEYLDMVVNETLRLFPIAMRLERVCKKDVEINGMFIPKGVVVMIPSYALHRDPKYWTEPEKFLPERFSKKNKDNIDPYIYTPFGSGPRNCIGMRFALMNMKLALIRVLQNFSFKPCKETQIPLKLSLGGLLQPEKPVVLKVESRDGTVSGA

[2] = target: T1, CYP3A4; experiment: H2O2-dependent heme depletion (heme bleaching) assay; conditions: for Heme Destroyed: 10 mM H2O2, 2 h, relative to ligand-free CYP3A4 = 100%; for kH2O2: rate constant for the H2O2-dependent heme-bleaching reaction, 10 mM H2O2, 16 μM inhibitor
Procedure: H2O2-dependent heme depletion assay—Heme bleaching in ligand-free and inhibitor-bound CYP3A4 (1.6 μM) was monitored at 23 °C in 0.1 M phosphate buffer, pH 7.4. After 10 min of preincubation of CYP3A4 with 16 μM inhibitors, heme decay was initiated by the addition of 10 mM H2O2 (final concentration) and monitored at 420 nm for 2 h. The percentage of heme destroyed was calculated relative to that in ligand-free CYP3A4, considered as 100% decay.
Target sequence in this assay (P08684 whole entry, the tested form may be a part): as above

[3] = target: T1, CYP3A4; conditions: BFC debenzylation activity, same method as in this study; previously reported analogues; cited from earlier work
Target sequence in this assay (P08684 2-503): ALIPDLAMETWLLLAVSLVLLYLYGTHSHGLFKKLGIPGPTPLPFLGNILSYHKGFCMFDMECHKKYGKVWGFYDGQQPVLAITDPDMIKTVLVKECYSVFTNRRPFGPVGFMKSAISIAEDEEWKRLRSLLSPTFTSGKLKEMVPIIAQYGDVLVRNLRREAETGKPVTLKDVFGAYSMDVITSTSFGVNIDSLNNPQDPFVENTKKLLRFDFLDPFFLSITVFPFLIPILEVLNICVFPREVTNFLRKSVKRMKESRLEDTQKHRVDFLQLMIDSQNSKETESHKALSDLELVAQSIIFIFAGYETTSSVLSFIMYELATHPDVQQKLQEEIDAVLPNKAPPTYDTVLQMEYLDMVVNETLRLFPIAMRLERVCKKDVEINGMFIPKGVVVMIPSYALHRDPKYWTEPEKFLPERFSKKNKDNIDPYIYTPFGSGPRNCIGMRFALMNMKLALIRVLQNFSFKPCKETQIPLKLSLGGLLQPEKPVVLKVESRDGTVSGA

[4] = target: T1, CYP3A4; conditions: previously reported analogues; cited from earlier work
Target sequence in this assay (P08684 whole entry, the tested form may be a part): as the sequence (P08684 whole entry, the tested form may be a part) above

[5] = target: T1, CYP3A4; experiment: Spectral binding titrations (equilibrium ligand binding, type II spectral change); conditions: for Kd: 23 °C, 0.1 M phosphate pH 7.4, quadratic fits to titration plots, read-out: Ks (spectral dissociation constant); for λmax Ferric: ferric ligand-bound CYP3A4; for ΔAmax: maximal absorbance change (peak-to-trough in difference spectrum) relative to that induced by ritonavir; for A421/417: ratio between absorption maxima of ferric ligand-bound and ligand-free CYP3A4; for λmax Ferrous: ferrous ligand-bound CYP3A4
Procedure: Spectral Binding Titrations—Equilibrium ligand binding to CYP3A4 was monitored using a Cary 300 spectrophotometer at 23 °C in 0.1 M phosphate buffer, pH 7.4, supplemented with 20% glycerol and 1 mM dithiothreitol. Inhibitors were dissolved in dimethyl sulfoxide (DMSO) and added to a 2 μM protein solution in small aliquots, with the final solvent concentration of <2%. The spectral dissociation constant (Ks) was determined from quadratic fits to the titration plots.
Target sequence in this assay (P08684 whole entry, the tested form may be a part): as above

[6] = target: T1, CYP3A4; experiment: Inhibitory potency for the BFC O-debenzylase activity in a soluble reconstituted system; format: biochemical; conditions: for IC50: BFC debenzylase activity, soluble reconstituted system with cytochrome P450 reductase
Procedure: Inhibitory Potency Assays—The inhibitory potency for the BFC O-debenzylase activity of CYP3A4 was evaluated fluorometrically in a soluble reconstituted system, and the IC50 values were derived from the [% activity] vs. [inhibitor] plots, as described in detail elsewhere.
Target sequence in this assay (P08684 2-503): as the sequence (P08684 2-503) above

[7] = target: T1, CYP3A4; experiment: Thermal denaturation (ligand-dependent change in melting temperature); format: binding; conditions: purified CYP3A4 protein solution, pH 7.4, ligand-dependent change in melting temperature of CYP3A4, 1 μM protein, 20 μM ligand
Procedure: Thermal Denaturation—Melting curves were recorded in 0.1 M phosphate buffer, pH 7.4, using a Cary 300 spectrophotometer. Protein (1 μM) was mixed with a ligand (20 μM) and incubated for 15 min at 23 °C. Protein denaturation was monitored at 260 nm using a 0.2 °C measurement step, 0.9 °C/min ramp rate, and 50–75 °C temperature range. The denaturation midpoint (melting temperature; Tm) was determined from non-linear fittings to the melting curve, as described earlier.
Target sequence in this assay (P08684 whole entry, the tested form may be a part): as the sequence (P08684 whole entry, the tested form may be a part) above

[8] = target: T1, CYP3A4; conditions: previously reported analogues; read-out: Ks; cited from earlier work
Target sequence in this assay (P08684 whole entry, the tested form may be a part): as above

[9] = target: recombinant CYP3A5 (Homo sapiens, UniProt P20815); experiment: Inhibitory potency against recombinant CYP3A5; format: biochemical; conditions: read-out: IC50 estimates
recombinant CYP3A5, sequence (P20815 whole entry): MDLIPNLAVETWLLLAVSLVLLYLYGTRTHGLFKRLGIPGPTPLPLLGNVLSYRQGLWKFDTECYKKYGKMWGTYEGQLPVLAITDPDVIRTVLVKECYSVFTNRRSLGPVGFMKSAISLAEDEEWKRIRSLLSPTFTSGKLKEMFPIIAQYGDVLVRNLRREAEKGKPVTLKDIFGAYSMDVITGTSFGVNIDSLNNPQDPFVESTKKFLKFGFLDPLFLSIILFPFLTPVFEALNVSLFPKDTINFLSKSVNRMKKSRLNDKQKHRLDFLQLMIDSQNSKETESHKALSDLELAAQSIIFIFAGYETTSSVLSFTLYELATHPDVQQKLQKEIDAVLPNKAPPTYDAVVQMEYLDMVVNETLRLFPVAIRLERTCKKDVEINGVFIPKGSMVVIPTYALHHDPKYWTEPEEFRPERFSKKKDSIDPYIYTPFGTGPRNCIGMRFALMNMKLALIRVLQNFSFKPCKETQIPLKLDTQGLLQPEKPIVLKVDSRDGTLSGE
From the text: Thus, one optimization strategy would be the R3 enlargement and branching. […] Our analogues lack the backbone hydroxyl as well, but contain much smaller/chemically simpler end-groups.

Row | Compound | Percentage of the absorbance change taking place during the fast kinetic phase [1] | kfast [1] | Heme Destroyed [2] | kH2O2 [2] | Kd ([5]; 2 μM protein) | λmax Ferric [5] | ΔAmax [5] | A421/417 [5] | IC50 [6] | ΔTm at 15 min, 20 μM [7] | λmax Ferrous [5] | also measured
1 | CC(C)(C)OC(=O)N[C@H](CS[C@H](Cc1ccccc1)C(=O)NCCCc1cccnc1)Cc1ccccc1 [Compound 3a, reference compound] | 36% | 12.5 ± 1.3 s⁻¹ | 18% and 18 ± 2% | 0.21 ± 0.03 10^3 × min^−1 | – | – | – | – | – | – | – | IC50 [3]: 160 nM; ΔTm [4]: 8.1 °C
2 | CC(C)(C)OC(=O)N[C@H](CS[C@H](Cc1ccccc1)C(=O)NCC(=O)Nc1cccnc1)Cc1ccccc1 [Compound 4] | 27% | 13.8 s⁻¹ and 13.8 ± 1.5 s⁻¹ | 44 ± 5% | 0.70 ± 0.08 10^3 × min^−1 | 1360 ± 120 nM | 421 nm | 98% | 0.99 | 1600 ± 200 nM | 1.9 °C | – | fold increase in Ks relative to 3a ([5]; relative to 3a): 100 fold; fold increase in IC50 relative to 3a ([6]; BFC O-debenzylase activity, relative to 3a): 10 fold
3 | CC(C)(C)OC(=O)N[C@H](CS[C@H](Cc1ccccc1)C(=O)NCc1cccnc1)Cc1ccccc1 [Compound 4b, reference compound] | 31% | 13.2 ± 1.8 s⁻¹ | 39 ± 5% | 0.64 ± 0.07 10^3 × min^−1 | – | – | – | – | – | – | – | Kd [8]: 63 nM; IC50 [3]: 1190 nM
4 | CC(C)(C)OC(=O)N[C@H](CS[C@H](Cc1ccccc1)C(=O)NCCc1cccnc1)Cc1ccccc1 [Compound 4f, reference compound] | 32% | 11.4 ± 1.4 s⁻¹ | 37% and 37 ± 4% | 0.60 ± 0.08 10^3 × min^−1 | – | – | – | – | – | – | – | ΔTm [4]: 4.2 °C
5 | CC(C)(C)OC(=O)N[C@H](CS[C@@H](Cc1ccccc1)C(=O)NCCc1cccnc1)Cc1ccccc1 [Compound 4h, reference compound] | 28% | 13.8 ± 2.0 s⁻¹ | 22 ± 3% | 0.32 ± 0.03 10^3 × min^−1 | – | – | – | – | – | – | – | –
6 | CC(C)(C)OC(=O)N[C@H](CS[C@H](Cc1ccccc1)C(=O)NCc1ccncc1)Cc1ccccc1 [Compound 5a] | 34% | 22.5 ± 3.1 s⁻¹ | 22% and 22 ± 3% | 0.31 ± 0.04 10^3 × min^−1 | 34 ± 5 nM | 422 nm | 105% | 1.07 | 310 ± 30 nM | 5.2 °C | 443 nm | fold improvement in binding affinity relative to 4f ([5]; relative to 4f): 2.2 fold; fold improvement in inhibitory potency relative to 4f ([6]; relative to 4f): 1.3 fold
7 | CC(C)(C)OC(=O)N[C@H](CS[C@H](Cc1ccccc1)C(=O)NCCc1ccncc1)Cc1ccccc1 [Compound 5b] | 31% | 18.2 ± 1.8 s⁻¹ | 22% and 22 ± 2% | 0.31 ± 0.03 10^3 × min^−1 | 14 ± 2 nM | 423 nm | 126% | 1.06 | 160 ± 20 nM | 5 °C | 443 nm | IC50 [9]: 180 to 200 nM
8 | O=C(Cc1cccnc1)N[C@H](CS[C@H](Cc1ccccc1)C(=O)NCc1cccnc1)Cc1ccccc1 [Compound 8a] | 26% | 10.3 s⁻¹ and 10.3 ± 1.2 s⁻¹ | 39 ± 4% | 0.66 ± 0.10 10^3 × min^−1 | 120 ± 10 nM | 421 nm | 96% | 1.03 | 600 ± 40 nM | 3.6 °C | 443 nm | –
9 | O=C(CCc1cccnc1)N[C@H](CS[C@H](Cc1ccccc1)C(=O)NCCc1cccnc1)Cc1ccccc1 [Compound 8b] | 24% | 5.6 s⁻¹ and 5.6 ± 0.6 s⁻¹ | 32 ± 3% | 0.44 ± 0.06 10^3 × min^−1 | 53 ± 9 nM | 421 nm | 109% | 1.03 | 820 ± 90 nM | 4.2 °C | 443 nm | increase in Ks relative to 4f ([5]; relative to 4f): ~ 20%; increase in IC50 relative to 4f ([6]; relative to 4f): ~ 20%
10 | O=C(CCc1cccnc1)N[C@H](CS[C@@H](Cc1ccccc1)C(=O)NCCc1cccnc1)Cc1ccccc1 [Compound 8c] | – | – | 24 ± 2% | 0.32 ± 0.03 10^3 × min^−1 | – | – | – | – | 210 ± 30 nM | – | – | IC50 [9]: 180 to 200 nM
11 | O=C(N[C@H](CS[C@H](Cc1ccccc1)C(=O)NCCCc1cccnc1)Cc1ccccc1)c1cccnc1 [Compound 10a] | 30% | 15.4 ± 1.8 s⁻¹ | 13 ± 2% | 0.17 ± 0.02 10^3 × min^−1 | 8 ± 1 nM | 422 nm | 111% | 1.11 | 150 ± 20 nM | 7.2 °C | 444 nm | improvement in heme protection relative to 3a ([2]; relative to the Boc-containing 3a): 5%; IC50 [9]: 180 to 200 nM
12 | O=C(CNC(=O)c1cccnc1)N[C@H](CS[C@H](Cc1ccccc1)C(=O)NCCCc1cccnc1)Cc1ccccc1 [Compound 10b] | 29% | 13.7 ± 1.5 s⁻¹ | 19 ± 3% | 0.24 ± 0.03 10^3 × min^−1 | 9 ± 1 nM | 422 nm | 110% | 1.10 | – | 7.3 °C | 443 nm | Kd ([5]; human, purified CYP3A4 protein solution, pH 7.4, 2 μM protein): 8 to 9 nM; IC50 ([6]; human, probe BFC (O-debenzylation)): 210 ± 20 nM
